# Source: patent publication US20230174535A1, “INHIBITORS OF FIBROBLAST GROWTH FACTOR RECEPTOR KINASES” (Kinnate Biopharma Inc., priority 2019, published 2023)
# Read-outs that look alike come from different tables or passages of the source.
# Tests used:
# Human FGFR2 wildtype = target: T1, Human FGFR2 wildtype (Homo sapiens, UniProt P21802); assay: FGFR2 wildtype kinase assay (Reaction Biology HotSpot); assay type: biochemical; conditions: ATP at Km; read-out: FGFR2 (WT) Km IC50
# T1 construct: purchased Reaction Biology Corporation (contract assay; enzyme is the CRO's own)
# Description: (§1) Biochemical assays were run at Reaction Biology (Reaction Biology Corporation, 1 Great Valley Parkway, Suite 2, Malvern, Pa. 19355, USA). The Reaction Biology (http://www.reactionbiology.com) HotSpot assay platform was used to measure kinase/inhibitor interactions as described previously (Anastassiadis et al., 2011). In brief, for each reaction, kinase and substrate were mixed in a buffer containing 20 mM HEPES (pH 7.5), 10 mM MgCl2, 1 mM EGTA, 0.02% Brij35, 0.02 mg/mL BSA, 0.1 mM Na3VO4, 2 mM DTT, and 1% DMSO. All compounds were in powder form and freshly solubilized in DMSO for assays. Compounds were then added to each reaction mixture via acoustic dispensing using an ECHO 550 nanoliter dispenser. For Human FGFR2 wildtype testing, a peptide substrate, poly[Glu:Tyr] (4:1) was used to promote the reaction at a concentration of 0.2 mg/ml, with a final ATP concentration as determined by Reaction Biology. For Human FGFR2 (V565F) testing, a peptide substrate, poly[Glu:Tyr] (4:1) was used to promote the reaction at a concentration of 0.2 mg/ml, with a final ATP concentration as determined by Reaction Biology. Compounds were tested in 10-dose IC50 mode with a 3-fold serial dilution. After a 20-min incubation, ATP (Sigma-Aldrich, St. Louis, Mo. 63178) and [g33P] ATP (specific activity 10 microCi/microliter) purchased at PerkinElmer (Boston, Mass., 02118 Cat #BLU 003H250UC) were added at a final total concentration of 10 mM. Reactions were carried out at room temperature for 2 hr and spotted onto P81 ion exchange cellulose chromatography paper (Reaction Biology). Filter paper was washed in 0.75% phosphoric acid to remove unincorporated ATP. The percent remaining kinase activity relative to a vehicle-containing (DMSO) kinase reaction was calculated for each kinase/inhibitor pair. IC50 values were calculated using Prism 5 (GraphPad).
# Human FGFR2 (V565F) = target: T2, Human FGFR2 (V565F) (Homo sapiens, UniProt P21802, V564F); assay: FGFR2 V565F mutation kinase assay (Reaction Biology HotSpot); assay type: biochemical; conditions: 100 uM ATP
# T2 construct: purchased Reaction Biology Corporation (contract assay; enzyme is the CRO's own)
# Description: as §1, with “ATP (specific activity 10 microCi/microliter) purchased at PerkinElmer (Boston, Mass., 02118 Cat #BLU 003H250UC) were added at a final total concentration of 10 mM.” left out
# SNU-16 cells = assay: SNU-16 cell-based viability assay (CellTiter-Glo); conditions: Homo sapiens
# From the text: For determining the covalent nature of compounds, a simple cell-based assay was employed. SNU-16 cells were obtained from ATCC (Cat #CRL-5974; American Type Culture Collection; Manassas, Va. 20110) for this assay. SNU-16 is a cultured line derived in 1987 by J. Park and associates from ascites of a patient with poorly differentiated gastric carcinoma of the stomach, and cells were collected from the patient prior to chemotherapy. The cells express the surface glycoproteins carcinoembryonic antigen (CEA) and TAG-72. No evidence of amplification or rearrangements has been noted in the N-myc, L-myc, myb and EGF receptor genes, although the c-myc proto-oncogene is amplified. There was no expression of the following genes: N-myc, L-myc, c-cis, IGF-2, or gastrin releasing peptide. These cells are known to have an FGFR2 amplification and are therefore relevant for the compound testing at hand (1). For this assay, cells were plated on poly-D-lysine to maintain attachment. Cells were either exposed to compound for 2 hours or 72 hours to test the ability of the compound to stay on target after binding. Briefly, 80 μL cell solution containing 5000 SNU-16 cells was plated per well into 96-well Poly-D-Lysine Cellware plate and incubated in 37° C. incubator overnight to facilitate adherence. Compounds were solubilized fresh from powder as dimethylsulfoxide stocks (DMSO), and plated as half log, 9 point dilutions in DMSO and then plated into cell media containing RPMI1640+10% FBS for ease of transfer without disrupting cells. Total volume in cells was 100 uL. For cells exposed to compound for two hours, cells were incubated in 37° C. incubator for 2 hours, upon which time plates were removed and cells were centrifuged at 1500 rpm for 5 min, followed by removal of all supernatant, and the re-dispense 100 μL of RPMI1640+10% FBS per well. This was repeated twice. Plates were put back into the incubator for 72 hours. For cells exposed to compound for 72 hours, plates were removed from the incubator for the time of washing but not disturbed, and then placed back in the incubator without washing. Assay plates were read for total ATP by luminescent CTG signal at the end of the 72 hour incubation by adding 100 μL of CTG (Cell TiterGlo: Cat #G9241; Promega Corporation, Madison, Wis., 53711) per well, followed by gently agitating the contents for 2 min on the plate shaker, and incubating the plates for 10 min at room temperature in dark. […] Clin Cancer Res 2010; 16:5750-8.
# [1] = cells exposed to compound for 2 hours, washed, read after 72 hour incubation, read-out: SNU-16 IC50 (nM) 2 h
# [2] = cells exposed to compound for 72 hours, no washing, read-out: SNU-16 IC50 (nM) 72 h
# T1 sequence (P21802 22-821): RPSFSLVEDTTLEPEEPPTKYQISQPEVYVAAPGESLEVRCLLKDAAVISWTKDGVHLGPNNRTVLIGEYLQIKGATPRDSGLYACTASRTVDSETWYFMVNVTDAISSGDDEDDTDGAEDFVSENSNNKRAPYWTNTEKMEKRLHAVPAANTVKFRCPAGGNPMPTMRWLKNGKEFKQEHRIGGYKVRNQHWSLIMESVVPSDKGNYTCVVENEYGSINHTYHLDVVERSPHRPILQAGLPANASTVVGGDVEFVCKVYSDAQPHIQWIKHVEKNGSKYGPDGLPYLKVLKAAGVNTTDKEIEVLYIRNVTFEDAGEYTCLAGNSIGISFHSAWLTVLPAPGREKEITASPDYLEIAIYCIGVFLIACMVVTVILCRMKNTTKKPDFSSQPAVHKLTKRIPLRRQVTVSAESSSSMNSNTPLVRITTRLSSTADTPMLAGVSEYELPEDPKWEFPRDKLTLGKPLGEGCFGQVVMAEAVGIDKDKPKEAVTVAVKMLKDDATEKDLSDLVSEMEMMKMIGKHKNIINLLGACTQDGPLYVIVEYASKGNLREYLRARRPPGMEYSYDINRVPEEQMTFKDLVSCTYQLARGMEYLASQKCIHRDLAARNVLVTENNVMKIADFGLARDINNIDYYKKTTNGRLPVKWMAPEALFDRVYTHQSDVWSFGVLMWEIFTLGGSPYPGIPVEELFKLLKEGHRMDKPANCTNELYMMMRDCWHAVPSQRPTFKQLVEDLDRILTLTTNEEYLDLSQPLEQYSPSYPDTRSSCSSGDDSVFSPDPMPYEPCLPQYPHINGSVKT
# T2 sequence (P21802 22-822 isoform P21802-3 V565F limits assumed): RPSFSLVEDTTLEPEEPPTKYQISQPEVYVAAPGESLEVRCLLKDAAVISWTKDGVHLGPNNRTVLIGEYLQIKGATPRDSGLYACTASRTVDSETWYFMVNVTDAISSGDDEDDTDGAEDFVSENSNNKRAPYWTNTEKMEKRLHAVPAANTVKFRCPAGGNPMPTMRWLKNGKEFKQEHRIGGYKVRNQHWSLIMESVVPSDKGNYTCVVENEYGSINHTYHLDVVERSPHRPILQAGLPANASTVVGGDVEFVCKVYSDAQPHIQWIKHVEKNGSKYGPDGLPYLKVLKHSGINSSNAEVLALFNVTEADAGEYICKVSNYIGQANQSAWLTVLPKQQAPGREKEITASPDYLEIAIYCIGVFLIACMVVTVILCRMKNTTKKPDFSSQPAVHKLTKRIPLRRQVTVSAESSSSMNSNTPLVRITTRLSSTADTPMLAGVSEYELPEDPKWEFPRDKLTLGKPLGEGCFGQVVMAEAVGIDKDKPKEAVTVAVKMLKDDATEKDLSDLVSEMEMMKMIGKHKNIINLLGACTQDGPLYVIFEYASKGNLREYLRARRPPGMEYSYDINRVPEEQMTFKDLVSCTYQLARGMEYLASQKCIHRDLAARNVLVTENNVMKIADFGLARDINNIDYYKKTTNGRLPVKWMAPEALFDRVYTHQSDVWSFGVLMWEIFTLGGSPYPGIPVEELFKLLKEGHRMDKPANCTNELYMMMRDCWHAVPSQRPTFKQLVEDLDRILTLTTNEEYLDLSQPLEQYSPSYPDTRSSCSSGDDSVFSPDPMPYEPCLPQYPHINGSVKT
IC50 (Human FGFR2 wildtype) [nM],IC50 (Human FGFR2 (V565F)) [nM],IC50 (SNU-16 cells; [1]) [nM],IC50 (SNU-16 cells; [2]) [nM],Structure (SMILES)
≤ 10,≤ 10,≤ 10,≤ 10,"C=CC(=O)N1CC(c2cc(C#Cc3c(F)c(OC)cc(OC)c3F)c3c(N)ncnn23)C[C@@H]1COC (single isomer, unassigned) [Chemical Synthesis Example 4]"
,,1000 to 10000,100 to 1000,"C=CC(=O)N1CC(c2cc(C#Cc3c(F)c(OC)cc(OC)c3F)c3c(N)ncnn23)C[C@@H]1COC (single isomer, unassigned) [Chemical Synthesis Example 3]"
≤ 10,10 to 100,≤ 10,≤ 10,"C=CC(=O)N1C[C@H](c2cc(C#Cc3cc(OC)cc(OC)c3)c3c(N)ncnn23)C[C@@H]1COC (single isomer, unassigned) [Chemical Synthesis Example 2]"
≤ 10,10 to 100,≤ 10,≤ 10,"C=CC(=O)N1CC(c2cc(C#Cc3cc(OC)cc(OC)c3F)c3c(N)ncnn23)C[C@@H]1COC (single isomer, unassigned) [Chemical Synthesis Example 6]"
,,1000 to 10000,100 to 1000,"C=CC(=O)N1CC(c2cc(C#Cc3cc(OC)cc(OC)c3F)c3c(N)ncnn23)C[C@@H]1COC (single isomer, unassigned) [Chemical Synthesis Example 5]"
,,1000 to 10000,10 to 100,"C=CC(=O)N1C[C@@H](c2cc(C#Cc3cc(OC)cc(OC)c3)c3c(N)ncnn23)C[C@@H]1COC (single isomer, unassigned) [Chemical Synthesis Example 1]"
